# Data taken from patent US20140303092A1 (CHIMERIX, INC., priority 2011, published 2014).
# Tests used:
# [1] = Study HDP-CDV-106: safety and PK in subjects with impaired hepatic function; assay type: in vivo, human
# Experimental: Subjects with moderate hepatic impairment and matched healthy control subjects with normal hepatic function were enrolled and dosed first in Cohort 1, each receiving a single 200 mg dose of HDP-CDV under fasting conditions. The safety, tolerability and PK data from these subjects was reviewed prior to initiating dosing in subjects with severe hepatic impairment in Cohort 2. The study was conducted at four centers in the USA. Up to approximately 24 male and female subjects were planned to be enrolled in this study, including 8 subjects with moderate hepatic impairment and 8 matched healthy control subjects in Cohort 1 and 8 subjects with severe hepatic impairment in Cohort 2. The severity of hepatic impairment was assessed according to the Child-Pugh-Turcotte (CPT) score. Assessments are as follows: CPT Class B (moderate impairment) has a score of 7 to 9 points; and Class C (severe impairment) has a score of >9 points. For the purposes of this study, Cohort 2 subjects were required to have a CPT score of 10 or 11.
# [2] = mouse, in vivo
# CMV = assay: In vitro antiviral activity in cell culture, CMV; assay type: cell-based, cytomegalovirus; conditions: dsDNA viruses including CMV and AdV
# CYP3A = assay type: in vitro ADME
# [3] = system: human liver microsomes and recombinant human CYP enzymes; assay: Study HDP-CDV-NCA-049: in vitro CYP reaction phenotyping, liver microsomes; assay type: in vitro ADME; conditions: liver microsomes from multiple species, previous studies
# Source text: This study is expected to definitively quantify the major human metabolites arising from specific CYP enzymes and inform the need for a clinical DDI study investigating the effect of inhibition of these CYP enzymes on the PK of HDP-CDV.
# clinical = conditions: human, in vivo
# Experimental: The pharmacokinetics of HDP-CDV (oral solution) were investigated in a dose-escalation study in healthy volunteers (Study HDP-CDV-102) in which single doses of up to 2 mg/kg and multiple doses (3 doses, each separated by 6 days) of up to 1 mg/kg were administered.
# [4] = rat, in vivo
# Source text: AME of ^14C-HDP-CDV Following Oral Administration to Bile Duct-Intact and Bile Duct-Cannulated Rats. In order to more fully define the CYP enzymes involved in HDP-CDV elimination, the disposition and metabolism of ^14C-radiolabeled-HDP-CDV was studied in bile-duct cannulated rats either with or without pretreatment with the broad-spectrum CYP inhibitor aminobenzotriazole (ABT). This study has completed the in-life phase and sample analysis is ongoing.
# [5] = human, in vivo
# Source text: ESRD patients not on dialysis have no ability to eliminate the metabolite CDV. As such, specific labeling for ESRD patients not currently on dialysis may not be sought. Furthermore, such subjects are/may be excluded from future studies with HDP-CDV.
# [6] = Study HDP-CDV-201 post hoc analysis of preemptive therapy with anti-CMV STOC during follow-up; assay type: in vivo, human (HCT recipients)
# Experimental: Subjects who developed CMV infection or disease at any time during the up to 11-week treatment period (through approximately 100 days posttransplant) were discontinued from study treatment (i.e., HDP-CDV or placebo) and followed for a period of 4 weeks, while subjects who completed the treatment period were followed for a period of 8 weeks. After study treatment was discontinued, subjects were treated with PrT for CMV infection/disease.
# Among the study population (N=230 subjects), subjects who received STOC for PrT, defined as receiving at least one of GCV, vGCV, FOS or IV CDV for the explicit treatment of CMV infection/disease during the follow-up (“FU”) period, were identified. […]
# Baseline measures for clinical laboratory values were defined as the last value on or before the last day of study treatment. The maximal decrease in ANC was determined using the minimum value reported after the last day of study treatment. The maximal increase in serum creatinine was determined using the maximum value reported after the last day of study treatment. […]
# AEs were counted if the onset day was after the last day of study treatment. […] P-values were determined using Fisher's exact test for binary data and an independent t-test (pooled) for continuous data.
# P-gp = P-gp (Homo sapiens, UniProt P08183); assay: P-gp inhibition in vitro; assay type: in vitro ADME; conditions: in vitro results
# Chain of P-gp (P08183 whole entry): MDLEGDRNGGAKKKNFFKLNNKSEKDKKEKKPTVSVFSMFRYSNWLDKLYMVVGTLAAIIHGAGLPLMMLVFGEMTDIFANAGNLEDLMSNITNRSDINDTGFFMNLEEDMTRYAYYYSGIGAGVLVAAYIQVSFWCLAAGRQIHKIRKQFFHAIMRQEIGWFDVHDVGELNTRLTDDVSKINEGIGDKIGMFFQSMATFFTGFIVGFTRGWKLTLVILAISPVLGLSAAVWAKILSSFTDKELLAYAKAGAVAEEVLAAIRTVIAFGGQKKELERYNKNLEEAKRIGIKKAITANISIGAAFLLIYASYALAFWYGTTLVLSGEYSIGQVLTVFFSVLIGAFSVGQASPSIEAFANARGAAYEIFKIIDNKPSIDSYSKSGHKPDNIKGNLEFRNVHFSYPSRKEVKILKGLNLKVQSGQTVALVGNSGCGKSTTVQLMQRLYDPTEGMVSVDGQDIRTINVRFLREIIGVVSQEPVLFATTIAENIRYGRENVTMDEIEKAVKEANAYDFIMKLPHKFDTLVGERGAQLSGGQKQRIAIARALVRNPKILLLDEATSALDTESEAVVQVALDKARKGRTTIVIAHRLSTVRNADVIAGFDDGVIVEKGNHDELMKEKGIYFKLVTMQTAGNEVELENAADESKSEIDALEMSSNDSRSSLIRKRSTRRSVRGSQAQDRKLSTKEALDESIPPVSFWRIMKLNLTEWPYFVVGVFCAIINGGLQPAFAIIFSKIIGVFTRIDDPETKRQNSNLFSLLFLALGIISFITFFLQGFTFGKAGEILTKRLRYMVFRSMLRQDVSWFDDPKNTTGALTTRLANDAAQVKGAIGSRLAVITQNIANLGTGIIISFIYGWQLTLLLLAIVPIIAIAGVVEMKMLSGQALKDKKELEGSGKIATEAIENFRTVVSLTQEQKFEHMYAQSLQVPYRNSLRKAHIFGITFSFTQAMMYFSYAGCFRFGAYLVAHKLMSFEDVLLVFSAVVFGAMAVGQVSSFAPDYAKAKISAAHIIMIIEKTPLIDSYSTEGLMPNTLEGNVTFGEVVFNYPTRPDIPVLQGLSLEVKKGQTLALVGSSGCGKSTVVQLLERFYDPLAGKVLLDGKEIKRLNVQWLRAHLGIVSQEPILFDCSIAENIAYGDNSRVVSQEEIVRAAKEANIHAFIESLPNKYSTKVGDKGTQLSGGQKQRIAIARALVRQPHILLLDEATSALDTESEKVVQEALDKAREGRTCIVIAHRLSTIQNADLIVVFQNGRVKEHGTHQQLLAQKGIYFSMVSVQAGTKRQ
# Source text: Due to this potential interaction, digoxin is excluded medication in Study HDP-CDV-301 (see Example 5).
smiles,measurement,setting,value
CCCCCCCCCCCCCCCCOCCCOP(=O)(O)COC(CO)Cn1ccc(N)nc1=O (stereo not shown) [HDP-CDV],effect of hepatic impairment on percentage bound to plasma protein,"[1]; human, in vivo",did not affect
same,need for dose adjustment in hepatic disease,[1]; moderate or severe hepatic disease,no HDP-CDV dose adjustment is warranted
same,ALT increases in individual animals,[2],up to 5 fold
same,"higher potency in comparison to cidofovir, ganciclovir and other nucleoside analogs",CMV,100 to 1000 fold
same,inhibition of CYP3A activity in vitro,CYP3A,moderate inhibitor
same,in vitro turnover,[3],low in vitro turnover
same,Cmax and AUC versus dose,clinical,increased approximately in proportion to dose
same,accumulation on Day 12,clinical,negligible accumulation
same,quantifiable in urine,clinical,not quantifiable in the urine
same,half-life,clinical; 1 mg/kg,27 h
same,time of Cmax after administration,clinical; po,2 to 3 h
same,administered radioactivity excreted in bile,[4],~8%
same,administered radioactivity excreted in feces,[4],~57%
same,administered radioactivity excreted in urine,[4],approximately 30%
same,radioactivity excreted in bile,[4],3%
same,radioactivity excreted in feces,[4],55%
same,radioactivity excreted in urine,[4],28%
same,recovery of radioactivity,[4],≥ 90%
same,need for dosage adjustment in renal impairment,[5],no adjustment of HDP-CDV dosage is required
same,rate of preemption,[6]; 100 mg twice-weekly (11/50),22.0%
same,incidence of preemptive therapy with anti-CMV STOC,[6]; four cohorts ≧100 mg HDP-CDV per week (38 of 146),26.0%
same,inhibition of P-gp,P-gp,may inhibit P-gp
